Test results: patent US20160299130A1, “Telocinobufagin (TCINO) in the Diagnosis and Pathogenesis of Preeclampsia, Traumatic Brain Injury and Acute Respiratory Distress Syndrome” (priority 2015, published 2016)

Legend:
[1] = in vitro; cited from earlier work
[2] = system: animal models of preeclampsia; assay: preeclampsia in animal models; assay type: in vivo
Text: (§1) MBG is elevated in preeclampsia and traumatic brain injury. It has been shown that the administration of the antagonist of MBG, resibufagenin (RBG) is therapeutically effective. […] RBG antagonizes MBG activity and may be an effective treatment for hypertension, ARDS, traumatic brain injury, and preeclampsia.

[3] = system: rodent brain contusion model; assay: rodent brain contusion model; assay type: in vivo; settings: given 1 hour after the insult
Text: as §1

Structure (SMILES) | vasoconstrictor action [1] | preeclampsia [2] | tissue injury [3]
C[C@]12CC[C@H](O)C[C@@]1(O)CC[C@@H]1[C@@H]2CC[C@]2(C)[C@@H](c3ccc(=O)oc3)C[C@H]3O[C@]132 [MBG, marinobufagenin] | acts in vitro as a vasoconstrictor |  | 
C[C@]12CC[C@H](O)C[C@H]1CC[C@@H]1[C@@H]2CC[C@]2(C)[C@@H](c3ccc(=O)oc3)C[C@H]3O[C@]132 [RBG, resibufagenin] |  | prevents preeclampsia | amelioration of tissue injury
